Ends that are not written are not given here.
Columns and labels:
[1] = test system: E. coli 184; assay type: cell-based, Escherichia coli; settings: broth microdilution, Mueller-Hinton broth, 24 h, 37 °C, OD 600 nm, triplicate; MIC as lowest concentration of DRS-B2 peptide; colistin-resistant strain (mcr-1)
Method: (§1) The Escherichia coli (E. coli) strains used in this study included E. coli ATCC 8739 and E. coli 184, which is resistant to colistin. […] E. coli strains were grown at 37 °C in Brain Heart Infusion (BHI) medium (Sigma-Aldrich, St. Louis, MA, USA).
(§2) The minimum inhibitory concentration (MIC) of the aforementioned formulations was determined in triplicate in 96-well microtiter plates using the broth microdilution method. Fresh colonies of E. coli were sub-cultured in Mueller–Hinton broth (Sigma-Aldrich) and were grown at 37 °C overnight on a rotary shaker at 160 rpm. […] The plates were incubated for 24 h at 37 °C, and inhibition of growth was measured at 600 nm with a spectrophotometer ELx808^tm (BioTek, Winoosky, VT, USA).

[2] = test system: E. coli ATCC 8739; assay type: cell-based, Escherichia coli; settings: broth microdilution, Mueller-Hinton broth, 24 h, 37 °C, OD 600 nm, triplicate; MIC as lowest concentration of DRS-B2 peptide; colistin-sensitive strain
Method: as §1, §2

[3] = test system: E. coli 184
Method: as §2
The ability of these new formulations to resist the conditions of the gastrointestinal tract (GIT) environment was determined as previously described. […]
To this end, we used pepsin, a digestive enzyme from the stomach, and active at pH 3, trypsin and chymotrypsin, which are synthesized in the pancreas and secreted in the small intestine, active between pH 6 and pH 8.

[4] = test system: IPEC-1 cells; experiment: Cytotoxicity assay (CCK8); settings: 24 h, 37 °C, CCK8, % of non-treated cells
Method: The cytotoxicity assay was performed as previously reported. Briefly, human colon carcinoma (HT29) and porcine intestinal (IPEC-1) cells (Sigma-Aldrich) were cultivated in Dulbecco’s Modified Eagle Medium (DMEM, Gibco, Thermo Fisher, Waltham, MA, USA) in 96-well-tissue culture plates for 48–72 h at 37 °C, in atmosphere containing 5% CO2, until the formation of a continuous confluent cell culture on the bottom of each well. […] The required concentrations were prepared in DMEM without antibiotics and serum and were added to the HT29/IPEC-1 cells in the wells, after washing with the same medium. The treated cells were then incubated for 24 h at 37 °C, in atmosphere containing 5% CO2. To assess the cell viability of the treated HT29/IPEC-1 cells, CCK8 assay (Dojindo Molecular Technologies, Tokyo, Japan) was realized according to the supplier recommendations. An amount of 150 µL of DMEM containing 7.5 µL of CCK-8 reagents were added to each well, and cells were incubated for 2 h. Plates were read at 450 nm in a microplate reader spectrophotometer (Xenius, Safas, Monaco).

[5] = Size (DLS) and zeta potential; assay type: physicochemical; settings: pH 6.3; Alg NPs 500 µg/mL, DRS-B2 40 µg/mL
Method: The concentration of Alg NPs has been set to 500 µg/mL in order to allow a good dispersion and avoid any aggregation or sedimentation that could interfere with the adsorption. […]

[6] = test system: CHO (Chinese Hamster Ovary) cells; settings: DRS-B2 at 39.7 µg/mL (10 µM); cited from earlier work
[7] = test system: MCF-7 (breast cancer) cells; settings: MCF-7, inhibition of thymidine incorporation; cited from earlier work
Excerpt: Of note, though many peptides endowed with biological functions, such as inhibitory activities, could be hemolytic, their combination with nanoparticles frequently allows them to discard this adverse trait. Charpentier et al. focused on the cytotoxicity of dermaseptin B3 and B4 on mammalian cells. These authors evaluated dermaseptin B3 and B4 abilities to inhibit thymidine incorporation into transformed human MCF-7 (breast cancer) cells. The results obtained unveiled 50% cytotoxicity when DRS-B3 was used at 27.8 µg/mL (10 µM). However, Galanth et al. reported that wh ...

Row | Substance | MIC E. coli 184 [1] [µg/mL] | MIC E. coli ATCC8739 [2] [µg/mL] | MICs of DRS-B2, Treatment with Pepsin ([3]; 30 min at pH 3 with pepsin (15 U/mL) and then 2 h at pH 6, 20 mM PBS, 39 °C at 140 rpm) [µg/mL] | MICs of DRS-B2, Treatment with Digestive Enzymes ([3]; 30 min at pH 3 with pepsin (15 U/mL) and then 2 h at pH 6 with trypsin (40 U/µL) + chymotrypsin (5 U/mL), 20 mM PBS, 39 °C at 140 rpm) [µg/mL] | MICs of DRS-B2, Treatment with pH Variation Only ([3]; incubation 30 min at pH 3 and then 2 h at pH 6, 20 mM PBS, 39 °C at 140 rpm, no enzymes) [µg/mL] | MICs of DRS-B2, Without Treatment ([3]; no physical or enzymatic treatment) [µg/mL] | percentage of survival of IPEC-1 cell line ([4]; DRS-B2 at 30 µg/mL (alone or adsorbed on Alg NPs)) [%] | percentage of survival of IPEC-1 cell line ([4]; DRS-B2 at 125 µg/mL (alone or adsorbed on Alg NPs)) [%] | Zeta Potential (ζ) [5] | toxic effect on CHO cells (in words) [6] | concentration giving 50% cytotoxicity [7] [ng/mL]
1 | GLWSKIKEVGKEAAKAAAKAAGKAALGAVSEAV-NH2 [DRS-B2, Dermaseptin B2] | 7.5 | 3.75 | ≥10 | ≥10 | 10 | 7.5 | 87 | 68 | +23 mV | not any toxic effect | –
2 | dermaseptin B3 [DRS-B3] | – | – | – | – | – | – | – | – | – | – | 27800

Reference: PMC9220408, “Enhanced Antibacterial Activity of Dermaseptin through Its Immobilization on Alginate Nanoparticles—Effects of Menthol and Lactic Acid on Its Potentialization” (Antibiotics, 2022)
